{
  "source": "EPA's ToxValDB 9.5 (doi:10.2903/j.efsa.2015.3943)",
  "key": {"Canidae": {"tested_on": "Canidae", "conditions": "subchronic; duration: 90 days; oral; Dog Other"}, "Oryctolagus sp.": {"tested_on": "Oryctolagus sp.", "conditions": "developmental; development"}, "Rattus norvegicus": {"tested_on": "Rattus norvegicus", "conditions": "oral"}},
  "data": [
    {"smiles": "CCCCOC(=O)[C@@H](C)Oc1ccc(Oc2ccc(C#N)cc2F)cc1", "note": "[Cyhalofop-butyl]", "values": [
      {"measurement": "LD50", "setting": "Anas platyrhynchos; acute, oral, unspecified, mortality", "value": "> 2250", "unit": "mg/kg-day"},
      {"measurement": "NOEC", "setting": "Anas platyrhynchos; reproductive, reproduction", "value": 80, "unit": "mg/kg-day"},
      {"measurement": "LC50", "setting": "Anas platyrhynchos; short-term, oral, feed, mortality", "value": "> 5620", "unit": "mg/kg"},
      {"measurement": "NOAEL", "setting": "Canidae", "value": 3, "unit": "mg/kg-day"},
      {"measurement": "LC50", "setting": "Colinus virginianus; acute, oral, diet, mortality", "value": "> 5620", "unit": "mg/kg"},
      {"measurement": "LD50", "setting": "Colinus virginianus; acute, oral, mortality", "value": "> 2250", "unit": "mg/kg-day"},
      {"measurement": "NOEC", "setting": "Colinus virginianus; reproduction developmental, reproduction", "value": 80, "unit": "mg/kg-day"},
      {"measurement": "NOAEL", "setting": "Mus musculus; chronic, duration: 78 weeks", "value": 0.8, "unit": "mg/kg-day"},
      {"measurement": "NOAEL", "setting": "Mus musculus; subchronic, duration: 90 days, oral", "value": 3, "unit": "mg/kg-day"},
      {"measurement": "NOAEL", "setting": "Oryctolagus sp.", "value": 40, "unit": "mg/kg-day"},
      {"measurement": "LD50", "setting": "Rattus norvegicus; acute, mortality", "value": "> 5000", "unit": "mg/kg-day"},
      {"measurement": "NOAEL", "setting": "Rattus norvegicus; subchronic, duration: 90 days", "value": 3, "unit": "mg/kg-day"}
    ]}
  ]
}
